# Laboratory results from US8853203B2, “Diazepinone derivatives” (Novartis AG, priority 2012, dated 2014).
# Experiments:
# human mGluR1 = human mGluR1 (Homo sapiens (Human), UniProt Q13255); test: mGluR1 antagonism, L-glutamate induced intracellular calcium increase (FLIPR) in CHO cells stably expressing human mGluR1; format: cell-based; settings: for IC50: L-glutamate induced intracellular calcium, CHO cells expressing human mGluR1, FLIPR; for inhibition at 10 µM: CHO
# human mGluR5a receptors = human mGluR5a receptors (Homo sapiens (Human), UniProt P41594); test: inhibition of glutamate-induced elevation of intracellular calcium in L(tk-) cells expressing human mGluR5a; format: cell-based; settings: for IC50: glutamate-induced intracellular calcium elevation, L(tk-) cells expressing human mGluR5a, read-out: mGluR5 IC50
# In short: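 Compounds tested for inhibition of the glutamate-induced rise in intracellular calcium concentration in L(tk-) cells stably expressing human mGluR5a.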
# Chain of human mGluR5a receptors (P41594 other isoform, or with tags, fused parts or gaps): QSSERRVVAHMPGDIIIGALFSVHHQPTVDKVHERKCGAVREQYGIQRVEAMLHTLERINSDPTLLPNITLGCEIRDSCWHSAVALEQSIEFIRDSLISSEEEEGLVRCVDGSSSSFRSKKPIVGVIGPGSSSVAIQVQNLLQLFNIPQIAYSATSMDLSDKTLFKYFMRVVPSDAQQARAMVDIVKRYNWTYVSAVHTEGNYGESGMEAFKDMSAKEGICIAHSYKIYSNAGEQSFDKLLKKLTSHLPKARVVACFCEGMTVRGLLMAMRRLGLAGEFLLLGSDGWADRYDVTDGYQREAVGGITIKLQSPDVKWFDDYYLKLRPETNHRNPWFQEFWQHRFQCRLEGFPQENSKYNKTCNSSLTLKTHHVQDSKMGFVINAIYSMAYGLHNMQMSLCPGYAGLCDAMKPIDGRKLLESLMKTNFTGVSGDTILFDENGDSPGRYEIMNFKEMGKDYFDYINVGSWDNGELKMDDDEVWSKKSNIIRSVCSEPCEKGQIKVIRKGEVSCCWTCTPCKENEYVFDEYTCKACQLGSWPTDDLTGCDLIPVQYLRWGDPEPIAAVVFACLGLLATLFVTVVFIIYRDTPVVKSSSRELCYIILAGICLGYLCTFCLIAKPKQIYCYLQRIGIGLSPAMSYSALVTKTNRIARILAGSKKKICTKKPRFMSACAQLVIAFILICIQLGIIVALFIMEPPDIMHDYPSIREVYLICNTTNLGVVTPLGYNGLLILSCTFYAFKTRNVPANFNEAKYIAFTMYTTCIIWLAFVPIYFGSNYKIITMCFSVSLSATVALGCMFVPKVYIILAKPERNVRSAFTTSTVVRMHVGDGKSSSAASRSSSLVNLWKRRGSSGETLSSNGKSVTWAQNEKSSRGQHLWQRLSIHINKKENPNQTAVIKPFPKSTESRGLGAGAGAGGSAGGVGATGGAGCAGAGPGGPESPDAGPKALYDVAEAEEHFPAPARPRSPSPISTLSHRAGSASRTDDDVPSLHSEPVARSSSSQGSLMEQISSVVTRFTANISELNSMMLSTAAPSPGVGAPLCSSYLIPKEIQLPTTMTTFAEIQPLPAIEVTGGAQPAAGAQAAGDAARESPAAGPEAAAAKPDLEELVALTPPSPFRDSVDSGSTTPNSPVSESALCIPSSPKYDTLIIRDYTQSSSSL
# Chain of human mGluR1 (Q13255 19-1194): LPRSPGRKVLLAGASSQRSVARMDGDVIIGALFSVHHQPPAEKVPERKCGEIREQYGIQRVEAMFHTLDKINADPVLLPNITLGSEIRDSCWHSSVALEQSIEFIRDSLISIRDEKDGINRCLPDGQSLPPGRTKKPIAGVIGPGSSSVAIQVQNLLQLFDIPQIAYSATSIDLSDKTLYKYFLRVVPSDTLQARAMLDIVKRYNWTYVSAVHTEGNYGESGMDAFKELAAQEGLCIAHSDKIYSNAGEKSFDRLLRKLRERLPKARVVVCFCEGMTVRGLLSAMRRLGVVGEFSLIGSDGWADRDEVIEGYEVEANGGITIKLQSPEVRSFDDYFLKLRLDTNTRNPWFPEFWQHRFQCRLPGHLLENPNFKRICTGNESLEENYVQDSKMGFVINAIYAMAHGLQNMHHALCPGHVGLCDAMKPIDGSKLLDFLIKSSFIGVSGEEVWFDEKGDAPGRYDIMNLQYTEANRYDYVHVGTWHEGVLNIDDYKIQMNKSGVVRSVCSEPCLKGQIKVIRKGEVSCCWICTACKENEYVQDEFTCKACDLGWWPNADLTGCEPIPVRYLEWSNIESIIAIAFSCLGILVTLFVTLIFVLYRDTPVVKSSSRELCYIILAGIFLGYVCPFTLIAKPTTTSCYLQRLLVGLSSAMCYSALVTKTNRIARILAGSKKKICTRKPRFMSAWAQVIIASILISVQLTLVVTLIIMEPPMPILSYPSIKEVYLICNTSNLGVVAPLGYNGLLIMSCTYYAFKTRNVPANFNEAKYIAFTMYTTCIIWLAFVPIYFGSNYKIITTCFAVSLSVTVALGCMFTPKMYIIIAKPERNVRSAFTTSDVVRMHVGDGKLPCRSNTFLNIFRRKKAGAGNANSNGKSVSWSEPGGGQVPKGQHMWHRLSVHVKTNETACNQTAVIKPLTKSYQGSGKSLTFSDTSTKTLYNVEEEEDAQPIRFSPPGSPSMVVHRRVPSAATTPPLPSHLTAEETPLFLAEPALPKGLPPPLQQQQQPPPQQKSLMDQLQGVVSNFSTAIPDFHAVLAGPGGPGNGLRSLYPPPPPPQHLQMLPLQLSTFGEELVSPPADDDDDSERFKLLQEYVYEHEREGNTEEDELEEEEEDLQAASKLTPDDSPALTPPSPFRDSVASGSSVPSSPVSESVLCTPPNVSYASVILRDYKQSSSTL
Structure (SMILES),IC50 (human mGluR1) [nM],IC50 (human mGluR5a receptors) [nM],inhibition at 10 µM (human mGluR1) [%],"inhibition at 10 µM (human mGluR5a receptors; LTK, read-out: mGluR5 % inhibition at 10 μM) [%]"
"C=C(C)c1cccc2c1CCN1C(=O)CN=C(n3cnc(COC)c3)C=C21 [Example 121, 2-(4-(methoxymethyl)-1H-imidazol-1-yl)-9-(prop-1-en-2-yl)-7,8-dihydro-[1,4]diazepino[7,1-a]isoquinolin-5(4H)-one]",490,14,–,–
"COCc1cn(C2=NCC(=O)N3CCc4c(cccc4C4CC4)C3=C2)cn1 [Example 96-1, 9-cyclopropyl-2-(4-(methoxymethyl)-1H-imidazol-1-yl)-7,8-dihydro-[1,4]diazepino[7,1-a]isoquinolin-5(4H)-one]",540,6,–,–
"COc1cccc(C2=NCC(=O)N3CCc4c(cccc4C4CCCO4)C3=C2)c1 (stereo not drawn) [Example 57, 2-(3-methoxyphenyl)-9-(tetrahydrofuran-2-yl)-7,8-dihydro-[1,4]diazepino[7,1-a]isoquinolin-5(4H)-one]",4500,14,–,–
"Cn1ccc(C2=NCC(=O)N3CCc4c(I)cccc4C3=C2)n1 [Example 31, 9-iodo-2-(1-methyl-1H-pyrazol-3-yl)-7,8-dihydro-[1,4]diazepino[7,1-a]isoquinolin-5(4H)-one]",1300,167,–,–
"COC(=O)c1cn(C2=NCC(=O)N3CCc4c(I)cccc4C3=C2)cn1 [Example 66, methyl 1-(9-iodo-5-oxo-4,5,7,8-tetrahydro-[1,4]diazepino[7,1-a]isoquinolin-2-yl)-1H-imidazole-4-carboxylate]",> 10000,780,–,–
"O=C1CN=C(n2cnc(C(F)(F)F)c2)C=C2c3cccc(I)c3CCN12 [Example 63, 9-iodo-2-(4-(trifluoromethyl)-1H-imidazol-1-yl)-7,8-dihydro-[1,4]diazepino[7,1-a]isoquinolin-5(4H)-one]",3200,535,–,–
"COc1cccc(C2=NCC(=O)N3CCc4c(OC)cccc4C3=C2)c1 [Example 1, 9-methoxy-2-(3-methoxyphenyl)-7,8-dihydro-[1,4]diazepino[7,1-a]isoquinolin-5(4H)-one]",6400,327,–,–
"Cc1cnc(-c2cccc3c2CCN2C(=O)CN=C(n4cnc(C5CC5)c4)C=C32)o1 [Example 88, 2-(4-cyclopropyl-1H-imidazol-1-yl)-9-(5-methyloxazol-2-yl)-7,8-dihydro-[1,4]diazepino[7,1-a]isoquinolin-5(4H)-one]",–,131,47,–
"CCOc1cccc(C2=NCC(=O)N3C(=C2)c2cccc(OC)c2CC3C)c1 (stereo not drawn) [Example 15, 2-(3-ethoxyphenyl)-9-methoxy-7-methyl-7,8-dihydro-[1,4]diazepino[7,1-a]isoquinolin-5(4H)-one]",–,–,44,42
"C=C(C)c1cccc2c1CCN1C(=O)CN=C(n3cnc([C@@H](C)OC)c3)C=C21 [Example 118, (R)-2-(4-(1-methoxyethyl)-1H-imidazol-1-yl)-9-(prop-1-en-2-yl)-7,8-dihydro-[1,4]diazepino[7,1-a]isoquinolin-5(4H)-one]",> 10000,18,–,–
"CCc1ncn(C2=NCC(=O)N3CCc4c(cccc4-c4ccc(F)nc4)C3=C2)n1 [Example 102, 2-(3-ethyl-1H-1,2,4-triazol-1-yl)-9-(6-fluoropyridin-3-yl)-7,8-dihydro-[1,4]diazepino[7,1-a]isoquinolin-5(4H)-one]",> 10000,16,–,–
"COc1cc(C2=NCC(=O)N3CCc4c(OC)cccc4C3=C2)ccn1 [Example 8, 9-methoxy-2-(2-methoxypyridin-4-yl)-7,8-dihydro-[1,4]diazepino[7,1-a]isoquinolin-5(4H)-one]",4900,22,–,–
"CCc1cn(C2=NCC(=O)N3CCc4c(cccc4-c4ccc(F)cc4)C3=C2)cn1 [Example 86, 2-(4-ethyl-1H-imidazol-1-yl)-9-(4-fluorophenyl)-7,8-dihydro-[1,4]diazepino[7,1-a]isoquinolin-5(4H)-one]",5900,12,–,–
"C#Cc1cn(C2=NCC(=O)N3CCc4c(cccc4-c4cscn4)C3=C2)cn1 [Example 105, 2-(4-ethynyl-1H-imidazol-1-yl)-9-(thiazol-4-yl)-7,8-dihydro-[1,4]diazepino[7,1-a]isoquinolin-5(4H)-one]",> 10000,122,–,–
"COCc1cn(C2=NCC(=O)N3CCc4c(cccc4-c4nccs4)C3=C2)cn1 [Example 71, 2-(4-(methoxymethyl)-1H-imidazol-1-yl)-9-(thiazol-2-yl)-7,8-dihydro-[1,4]diazepino[7,1-a]isoquinolin-5(4H)-one]",6400,27,–,–
"CC(C)c1cn(C2=NCC(=O)N3CCc4c(cccc4-c4cnn(C)c4)C3=C2)cn1 [Example 72, 2-(4-isopropyl-1H-imidazol-1-yl)-9-(1-methyl-1H-pyrazol-4-yl)-7,8-dihydro-[1,4]diazepino[7,1-a]isoquinolin-5(4H)-one]",> 10000,275,–,–
"CCc1cn(C2=NCC(=O)N3CCc4c(cccc4C4CCCO4)C3=C2)cn1 (racemic) [Example 111, 2-(4-ethyl-1H-imidazol-1-yl)-9-(tetrahydrofuran-2-yl)-7,8-dihydro-[1,4]diazepino[7,1-a]isoquinolin-5(4H)-one]",9300,53,–,–
"Cn1ccc(C2=NCC(=O)N3CCc4c(C#N)cccc4C3=C2)n1 [Example 40, 2-(1-methyl-1H-pyrazol-3-yl)-5-oxo-4,5,7,8-tetrahydro-[1,4]diazepino[7,1-a]isoquinoline-9-carbonitrile]",> 10000,5200,–,–
"COCCOc1cccc(C2=NCC(=O)N3CCc4c(OC)cccc4C3=C2)c1 [Example 12, 9-methoxy-2-(3-(2-methoxyethoxy)phenyl)-7,8-dihydro-[1,4]diazepino[7,1-a]isoquinolin-5(4H)-one]",1300,46,–,–

# Further lines, results first:
IC50 (human mGluR1) [nM],IC50 (human mGluR5a receptors) [nM],inhibition at 10 µM (human mGluR1) [%],"inhibition at 10 µM (human mGluR5a receptors; LTK, read-out: mGluR5 % inhibition at 10 μM) [%]",Structure (SMILES)
> 10000,77,–,–,"Cc1cn(C2=NCC(=O)N3CCc4c(cccc4-c4cnc(C)o4)C3=C2)cn1 [Example 99a, 2-(4-methyl-1H-imidazol-1-yl)-9-(2-methyloxazol-5-yl)-7,8-dihydro-[1,4]diazepino[7,1-a]isoquinolin-5(4H)-one]"
> 2000,347,–,–,"COc1ccc(-c2cccc3c2CCN2C(=O)CN=C(n4cnc(C5CC5)c4)C=C32)cn1 [Example 99d, 2-(4-cyclopropyl-1H-imidazol-1-yl)-9-(6-methoxypyridin-3-yl)-7,8-dihydro-[1,4]diazepino[7,1-a]isoquinolin-5(4H)-one]"
> 2000,108,–,–,"O=C1CN=C(n2cnc(-c3ccncc3)c2)C=C2c3cccc(C4CC4)c3CCN12 [Example 123f, 9-cyclopropyl-2-(4-(pyridin-4-yl)-1H-imidazol-1-yl)-7,8-dihydro-[1,4]diazepino[7,1-a]isoquinolin-5(4H)-one]"
–,5500,1,–,"COc1cccc2c1CCN1C(=O)CN=C(c3cnc4c(c3)OCCN4C)C=C21 [Example 36a, 9-methoxy-2-(4-methyl-3,4-dihydro-2H-pyrido[3,2-b][1,4]oxazin-7-yl)-7,8-dihydro-[1,4]diazepino[7,1-a]isoquinolin-5(4H)-one]"
> 10000,50,–,–,"Cc1ncn(C2=NCC(=O)N3CCc4c(ccc(F)c4-c4ccc(F)nc4)C3=C2)n1 [Example 99o, 10-fluoro-9-(6-fluoropyridin-3-yl)-2-(3-methyl-1H-1,2,4-triazol-1-yl)-7,8-dihydro-[1,4]diazepino[7,1-a]isoquinolin-5(4H)-one]"
